Measurements from patent US10052306B2 (LUC THERAPEUTICS, INC., priority 2013, dated 2018).
Where two headings read alike, the source gives them in different places.

Key:
[1] = molecular target: NR1/NR2B (Homo sapiens (Human), UniProt Q05586+Q13224); experiment: Cell assay: FDSS Ca2+ influx inhibition in HEK293 cells expressing NR1/NR2B; details: Binned Activity, HEK293 cells expressing NR1/NR2B, Ca2+ influx; binned NR2B NAM IC50;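 also: Fluo-8 Ca2+ signal read on Hamamatsu FDSS 6000 after glutamate, glycine and Ca2+ challenge following 10 min compound preincubation, end/baseline fluorescence ratio compared with MK801 control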
NR1/NR2B (Homo sapiens (Human), UniProt Q05586+Q13224), sequence (Q13224 27-1484, other chains not shown): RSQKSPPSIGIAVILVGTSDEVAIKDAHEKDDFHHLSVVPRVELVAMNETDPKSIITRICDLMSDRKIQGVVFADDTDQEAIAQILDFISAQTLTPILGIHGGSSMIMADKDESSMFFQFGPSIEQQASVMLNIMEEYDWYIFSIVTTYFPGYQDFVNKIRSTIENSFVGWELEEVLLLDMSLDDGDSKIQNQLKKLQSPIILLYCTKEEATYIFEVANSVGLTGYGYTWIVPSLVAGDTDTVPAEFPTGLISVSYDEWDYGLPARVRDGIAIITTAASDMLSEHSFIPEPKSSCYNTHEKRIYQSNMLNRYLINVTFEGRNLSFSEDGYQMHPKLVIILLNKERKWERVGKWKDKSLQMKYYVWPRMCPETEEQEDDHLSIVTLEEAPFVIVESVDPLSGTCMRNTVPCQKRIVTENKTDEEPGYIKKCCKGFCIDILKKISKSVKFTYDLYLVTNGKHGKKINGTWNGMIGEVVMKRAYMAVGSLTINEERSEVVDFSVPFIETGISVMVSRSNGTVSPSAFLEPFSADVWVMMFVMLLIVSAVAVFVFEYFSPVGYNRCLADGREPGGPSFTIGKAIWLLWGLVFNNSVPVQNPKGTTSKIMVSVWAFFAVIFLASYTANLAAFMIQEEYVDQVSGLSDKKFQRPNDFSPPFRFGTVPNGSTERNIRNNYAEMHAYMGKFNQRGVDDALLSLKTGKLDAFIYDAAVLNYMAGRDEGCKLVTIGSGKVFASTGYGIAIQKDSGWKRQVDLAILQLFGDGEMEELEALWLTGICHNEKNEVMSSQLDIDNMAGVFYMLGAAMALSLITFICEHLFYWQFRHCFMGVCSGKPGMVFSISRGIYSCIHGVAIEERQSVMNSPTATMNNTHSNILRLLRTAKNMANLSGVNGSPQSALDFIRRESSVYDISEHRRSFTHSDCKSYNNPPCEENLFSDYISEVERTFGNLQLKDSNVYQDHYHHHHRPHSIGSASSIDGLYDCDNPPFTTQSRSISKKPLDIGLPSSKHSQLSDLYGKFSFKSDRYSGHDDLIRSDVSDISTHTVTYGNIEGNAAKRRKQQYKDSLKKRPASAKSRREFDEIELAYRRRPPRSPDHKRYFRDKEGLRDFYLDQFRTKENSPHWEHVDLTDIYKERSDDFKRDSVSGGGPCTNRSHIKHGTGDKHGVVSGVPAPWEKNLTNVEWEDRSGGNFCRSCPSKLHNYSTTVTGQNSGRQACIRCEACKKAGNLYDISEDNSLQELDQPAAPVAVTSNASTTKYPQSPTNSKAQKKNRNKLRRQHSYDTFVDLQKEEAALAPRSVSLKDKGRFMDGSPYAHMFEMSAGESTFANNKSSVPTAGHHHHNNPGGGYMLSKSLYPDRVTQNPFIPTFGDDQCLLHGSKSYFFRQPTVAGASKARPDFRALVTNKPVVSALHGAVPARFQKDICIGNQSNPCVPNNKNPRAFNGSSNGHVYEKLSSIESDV

[2] = molecular target: NR1/NR2B (Homo sapiens (Human), UniProt Q13224); experiment: as above; details: read-out: NR2B NAM IC50
NR1/NR2B (Homo sapiens (Human), UniProt Q13224), sequence (Q13224 27-1484, other chains not shown): as above

[3] = HEK293 cells expressing NR1/NR2B, Ca2+ influx

SMILES	IC50 [1]	IC50 [2, 3]	IC50 [2]
Oc1ccc(C(O)CN2C[C@H]3C[C@@H](c4ccccc4)C[C@H]3C2)cc1 (some centres unmarked) [Example 115, 4-(1-hydroxy-2-(5-phenylhexahydrocyclo-penta[c]pyrrol-2(1H)-yl)ethyl)phenol]	> 10 µM	10 µM	–
O=C(Nc1ccc(F)cc1)N1C[C@H]2C[C@@H](c3ccccc3)C[C@H]2C1 [Example 101, N-(4-fluorophenyl)-5-phenyl-octahydrocylcopenta[c] pyrrole-2-carboxamide]	> 10 µM	10 µM	–
O=C(CN1C[C@@H]2C[C@@](O)(Cc3ccccc3)C[C@@H]2C1)c1ccc(-c2ccc(O)cc2)cc1 [Example 257, 2-((3aR,5r,6aS)-5-benzyl-5-hydroxyhexahydrocyclo-penta[c]pyrrol-2(1H)-yl)-1-(4′-hydroxy-[1,1′-biphenyl]-4-yl)ethanone]	> 10 µM	10 µM	–
O=C(CN1C[C@H]2C[C@@H](Cc3ccccc3)C[C@H]2C1)c1ccc(O)cc1 [Example 303, 2-[(3aR,5S,6aS)-5-benzyl-octahydrocyclopenta[c]pyrrol-2-yl]-1-(4-hydroxyphenyl)ethan-1-onefluorophenol]	< 0.1 µM	0.0388 µM	–
O=C(Nc1cccnc1)N1C[C@@H]2C[C@@](O)(c3ccccc3)C[C@@H]2C1 [Example 44]	> 10 µM	10 µM	–
CO[C@@]1(Cc2ccccc2)C[C@H]2CN(CC(=O)c3ccc(O)c(F)c3)C[C@H]2C1 [Example 170, 2-((3aR,5r,6aS)-5-benzyl-5-methoxyhexahydrocyclo-penta[c]pyrrol-2(1H)-yl)-1-(3-fluoro-4-hydroxyphenyl)ethanone]	0.1 to 1 µM	0.132 µM	–
Cc1ccccc1[C@]1(O)C[C@H]2CN(C(=O)Nc3ccc(Cl)c(C(F)(F)F)c3)C[C@H]2C1 [Example 24, N-[4-chloro-3-(trifluoromethyl)phenyl]-5-hydroxy-5-(2-methylphenyl)-octahydrocyclopenta[c] pyrrole-2-carboxamide]	> 10 µM	10 µM	–
O=C(Nc1cccc(C(F)(F)F)c1)N1C[C@@H]2C[C@@](O)(c3ccccc3)C[C@@H]2C1 [Example 5, 5-hydroxy-5-phenyl-N-[3-(trifluoromethyl)phenyl]-octahydrocyclopenta[c] pyrrole-2-carboxamide]	> 10 µM	10 µM	–
Cc1cccc(N2C[C@@H]3C[C@@](O)(c4ccc(F)cc4)C[C@@H]3C2)n1 [Example 87, 5-(4-fluorophenyl)-2-(6-methylpyridin-2-yl)-octahydrocyclopenta[c] pyrrol-5-ol]	> 10 µM	10 µM	–
C[C@@H](NC(=O)N1C[C@H]2C[C@@H](c3ccccc3)C[C@H]2C1)c1ccc(Cl)cc1 [Example 113, N-[(1R)-1-(4-chlorophenyl)ethyl]-5-phenyl-octahydrocyclopenta[c] pyrrole-2-carboxamide]	> 10 µM	10 µM	–
O=C(CN1C[C@@H]2C[C@@](O)(Cc3ccc(F)c(F)c3)C[C@@H]2C1)c1ccc(O)cc1 [Example 252, 2-((3aR,5r,6aS)-5-(3,4-difluorobenzyl)-5-hydroxyhexahydrocyclo-penta[c]pyrrol-2(1H)-yl)-1-(4-hydroxyphenyl)ethanone]	< 0.1 µM	0.0853 µM	–
Cc1ccc(NC(=O)N2C[C@@H]3C[C@@](O)(c4ccc(F)cc4)C[C@@H]3C2)cc1 [Example 36, 5-(4-fluorophenyl)-5-hydroxy-N-(4-methylphenyl)-octahydrocyclopenta[c] pyrrole-2-carboxamide]	> 10 µM	10 µM	–
O=C(CN1C[C@@H]2C[C@@](O)(Cc3ccc(F)cc3)C[C@@H]2C1)c1ccc(O)cc1 [Example 134, 2-((3aR,5r,6aS)-5-(4-fluorobenzyl)-5-hydroxyhexahydrocyclo-penta[c]pyrrol-2(1H)-yl)-1-(4-hydroxyphenyl)ethanone]	< 0.1 µM	0.0432 µM	–
COc1cccc(C[C@]2(O)C[C@H]3CN(CC(=O)c4ccc(O)cn4)C[C@H]3C2)c1 [Example 193, 2-((3aR,5r,6aS)-5-hydroxy-5-(3-meth-oxybenzyl)hexahydro-cyclopenta[c]pyrrol-2(1H)-yl)-1-(5-hydroxypyridin-2-yl)ethanone]	> 10 µM	10 µM	–
Cc1cccc(N2C[C@@H]3C[C@@](O)(c4ccccc4)C[C@@H]3C2)n1 [Example 85, 2-(6-methylpyridin-2-yl)-5-phenyl-octahydrocyclopenta[c] pyrrol-5-ol]	> 10 µM	10 µM	–
O=C1Cc2cc(C(=O)CN3C[C@@H]4C[C@@](O)(Cc5ccccc5)C[C@@H]4C3)ccc2N1 [Example 147, 5-(2-((3aR,5r,6aS)-5-benzyl-5-hydroxyhexahydrocyclo-penta[c]pyrrol-2(1H)-yl)acetyl)indolin-2-one]	0.1 to 1 µM	0.352 µM	–
COc1ccc(-c2ccc(C(=O)CN3C[C@@H]4C[C@@](O)(Cc5ccccc5)C[C@@H]4C3)cc2)cc1 [Example 259, 2-((3aR,5r,6aS)-5-benzyl-5-hydroxyhexahydrocyclo-penta[c]pyrrol-2(1H)-yl)-1-(4′-methoxy-[1,1′-biphenyl]-4-yl)ethanone]	> 10 µM	10 µM	–
O=C(Nc1ccccc1)N1C[C@@H]2C[C@@](O)(c3ccccc3)C[C@@H]2C1 [Example 25, 5-hydroxy-N,5-diphenyl-octahydrocyclopenta[c] pyrrole-2-carboxamide]	> 10 µM	10 µM	–
CO[C@@]1(Cc2ccccc2)C[C@H]2CN(CC(=O)c3ccc(O)c(F)n3)C[C@H]2C1 [Example 197, 2-((3aR,5r,6aS)-5-benzyl-5-methoxyhexahydrocyclo-penta[c]pyrrol-2(1H)-yl)-1-(6-fluoro-5-hydroxypyridin-2-yl)ethanone]	> 10 µM	10 µM	–
COc1cccc([C@]2(O)C[C@H]3CN(CC(=O)c4ccccc4)C[C@H]3C2)c1 [Example 59, 2-[5-hydroxy-5-(3-methoxyphenyl)-octahydrocyclopenta[c]pyrrol-2-yl]-1-phenylethan-1-one]	> 10 µM	–	10 µM

Second part, led by results:

IC50 [1]	IC50 [2, 3]	SMILES	IC50 [2]
1 to 10 µM	1.91 µM	O=C(CN1C[C@@H]2C[C@@](O)(Cc3c(F)cccc3F)C[C@@H]2C1)c1ccc(O)cn1 [Example 237, 2-[(3aR,5R,6aS)-5-[(2,6-difluorophenyl)methyl]-5-hydroxy-octahydrocyclopenta[c]pyrrol-2-yl]-1-(5-hydroxypyridin-2-yl)ethan-1-one]	–
0.1 to 1 µM	0.137 µM	Cc1cc(F)ccc1C[C@]1(O)C[C@H]2CN(CC(=O)c3ccc(O)cc3)C[C@H]2C1 [Example 250, 2-((3aR,5r,6aS)-5-(4-fluoro-2-methylbenzyl)-5-hydroxyhexahydrocyclo-penta[c]pyrrol-2(1H)-yl)-1-(4-hydroxyphenyl)ethanone]	–
< 0.1 µM	0.024 µM	Oc1ccc([C@@H](O)CN2C[C@@H]3C[C@@](O)(Cc4ccc(F)cc4)C[C@@H]3C2)nc1 [Example 255, (3aR,5S,6aS)-5-(4-fluorobenzyl)-2-((S)-2-hydroxy-2-(5-hydroxypyridin-2-yl)ethyl)octahydrocyclo-penta[c]pyrrol-5-ol]	–
1 to 10 µM	2.71 µM	Cc1cc(F)ccc1C[C@]1(O)C[C@H]2CN(CC(=O)c3ccc(O)cn3)C[C@H]2C1 [Example 242, 2-((3aR,5r,6aS)-5-(4-fluoro-2-methylbenzyl)-5-hydroxyhexahydrocyclo-penta[c]pyrrol-2(1H)-yl)-1-(5-hydroxypyridin-2-yl)ethanone]	–
< 0.1 µM	0.0273 µM	O=C(CN1C[C@@H]2C[C@@](O)(Cc3ccccc3F)C[C@@H]2C1)c1ccc(O)cc1 [Example 225, 2-((3aR,5r,6aS)-5-(2-fluorobenzyl)-5-hydroxyhexahydrocyclo-penta[c]pyrrol-2(1H)-yl)-1-(4-hydroxyphenyl)ethanone]	–
0.1 to 1 µM	0.145 µM	Cc1ccccc1C[C@]1(O)C[C@H]2CN(CC(=O)c3ccc(O)cc3)C[C@H]2C1 [Example 183, 2-((3aR,5r,6aS)-5-hydroxy-5-(2-methylbenzyl)hexahydro-cyclopenta[c]pyrrol-2(1H)-yl)-1-(4-hydroxyphenyl)ethanone]	–
> 10 µM	10 µM	CC(C)(C)c1ccc([C@]2(O)C[C@H]3CN(C(=O)Nc4cccc(C#N)c4)C[C@H]3C2)cc1 [Example 52]	–
0.1 to 1 µM	0.998 µM	O=C(CN1C[C@@H]2C[C@@](O)(Cc3ccccc3F)C[C@@H]2C1)c1ccc(O)cn1 [Example 221, 2-(5-(2-fluorobenzyl)-5-hydroxyhexahydrocyclo-penta[c]pyrrol-2(1H)-yl)-1-(5-hydroxypyridin-2-yl)ethanone]	–
> 10 µM	10 µM	O=C(CN1C[C@@H]2C[C@@](O)(Cc3ccccc3)C[C@@H]2C1)c1cccc(-c2cccnc2)c1 [Example 272, 2-((3aR,5r,6aS)-5-benzyl-5-hydroxyhexahydrocyclo-penta[c]pyrrol-2(1H)-yl)-1-(3-(pyridin-3-yl)phenyl)ethanone]	–
> 10 µM	10 µM	CC(=O)Nc1ccc(C(=O)CN2C[C@@H]3C[C@@](O)(Cc4ccccc4)C[C@@H]3C2)cn1 [Example 282, N-(5-(2-((3aR,5r,6aS)-5-benzyl-5-hydroxyhexahydrocyclo-penta[c]pyrrol-2(1H)-yl)acetyl)pyridin-2-yl)acetamide]	–
1 to 10 µM	7.05 µM	O=C(CCN1C[C@@H]2C[C@@](O)(Cc3ccccc3)C[C@@H]2C1)c1ccc(O)cc1 [Example 133, 3-((3aR,5r,6S)-5-benzyl-5-hydroxyhexahydrocyclo-penta[c]pyrrol-2(1H)-yl)-1-(4-hydroxyphenyl)propan-1-one]	–
